Reference: ChEMBL document CHEMBL1135279, “Design and synthesis of lignostilbene-alpha,beta-dioxygenase inhibitors” (Bioorg Med Chem Lett, 2002)
pIC50, pKi: −log10 of the molar value.

Assays:
[1] = biological target: T1, Lignostilbene alpha, beta-dioxygenase (Sphingomonas paucimobilis, UniProt O87171); experiment: Inhibitory concentration against Lignostilbene alpha beta-dioxygenase (LSD) was determined in 2 mL of 50 mM […] buffer containing 4 microg enzyme/mL at 30 degree C
T1 sequence (O87171 whole entry): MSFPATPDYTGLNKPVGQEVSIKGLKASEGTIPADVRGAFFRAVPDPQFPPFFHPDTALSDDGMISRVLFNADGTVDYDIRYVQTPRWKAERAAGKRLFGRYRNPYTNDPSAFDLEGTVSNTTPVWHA

[2] = biological target: T1, Lignostilbene alpha, beta-dioxygenase; experiment: Inhibitory concentration against Lignostilbene-alpha, beta-dioxygenase (LSD) was determined in 2 mL of 50 mM […] buffer containing 4 microg enzyme/mL at 30 degree C
[3] = biological target: T1, Lignostilbene alpha, beta-dioxygenase; experiment: Tested for the inhibition of Lignostilbene-alpha, beta-dioxygenase (LSD)

SMILES | pIC50 [1] | pIC50 [2] | pKi [3]
C/C(=C/c1ccccc1)c1ccccc1 | 4.66 | – | –
F/C(=C\c1ccccc1)c1ccccc1 | – | < 4.00 | –
C/C(=C/c1ccc(O)cc1)c1ccccc1 | 5.15 | – | –
C=C(C)c1ccc(O)cc1 | – | 4.92 | –
Oc1ccc(/C(F)=C/c2ccccc2)cc1 | – | 5.52 | 6.01
C/C(=C\c1ccccc1)c1ccccc1 | – | < 4.00 | –
C/C(=C\c1ccc(O)cc1)c1ccccc1 | – | 4.82 | –
